Experimental data: PMC8190356, “The Effect of the EGFR - Targeting Compound 3-[(4-Phenylpyrimidin-2-yl) Amino] Benzene-1-Sulfonamide (13f) against Cholangiocarcinoma Cell Lines” (Asian Pacific Journal of Cancer Prevention : APJCP, 2021)

Molecular target: T1, tyrosine kinase of EGFR (TK-EGFR) (Homo sapiens, UniProt P00533)
T1 construct: tyrosine kinase of EGFR (TK-EGFR), recombinant protein from E. coli
Test: ADP-Glo kinase assay with recombinant TK-EGFR, […] ATP
Format: biochemical

T1 sequence (P00533 25-1210): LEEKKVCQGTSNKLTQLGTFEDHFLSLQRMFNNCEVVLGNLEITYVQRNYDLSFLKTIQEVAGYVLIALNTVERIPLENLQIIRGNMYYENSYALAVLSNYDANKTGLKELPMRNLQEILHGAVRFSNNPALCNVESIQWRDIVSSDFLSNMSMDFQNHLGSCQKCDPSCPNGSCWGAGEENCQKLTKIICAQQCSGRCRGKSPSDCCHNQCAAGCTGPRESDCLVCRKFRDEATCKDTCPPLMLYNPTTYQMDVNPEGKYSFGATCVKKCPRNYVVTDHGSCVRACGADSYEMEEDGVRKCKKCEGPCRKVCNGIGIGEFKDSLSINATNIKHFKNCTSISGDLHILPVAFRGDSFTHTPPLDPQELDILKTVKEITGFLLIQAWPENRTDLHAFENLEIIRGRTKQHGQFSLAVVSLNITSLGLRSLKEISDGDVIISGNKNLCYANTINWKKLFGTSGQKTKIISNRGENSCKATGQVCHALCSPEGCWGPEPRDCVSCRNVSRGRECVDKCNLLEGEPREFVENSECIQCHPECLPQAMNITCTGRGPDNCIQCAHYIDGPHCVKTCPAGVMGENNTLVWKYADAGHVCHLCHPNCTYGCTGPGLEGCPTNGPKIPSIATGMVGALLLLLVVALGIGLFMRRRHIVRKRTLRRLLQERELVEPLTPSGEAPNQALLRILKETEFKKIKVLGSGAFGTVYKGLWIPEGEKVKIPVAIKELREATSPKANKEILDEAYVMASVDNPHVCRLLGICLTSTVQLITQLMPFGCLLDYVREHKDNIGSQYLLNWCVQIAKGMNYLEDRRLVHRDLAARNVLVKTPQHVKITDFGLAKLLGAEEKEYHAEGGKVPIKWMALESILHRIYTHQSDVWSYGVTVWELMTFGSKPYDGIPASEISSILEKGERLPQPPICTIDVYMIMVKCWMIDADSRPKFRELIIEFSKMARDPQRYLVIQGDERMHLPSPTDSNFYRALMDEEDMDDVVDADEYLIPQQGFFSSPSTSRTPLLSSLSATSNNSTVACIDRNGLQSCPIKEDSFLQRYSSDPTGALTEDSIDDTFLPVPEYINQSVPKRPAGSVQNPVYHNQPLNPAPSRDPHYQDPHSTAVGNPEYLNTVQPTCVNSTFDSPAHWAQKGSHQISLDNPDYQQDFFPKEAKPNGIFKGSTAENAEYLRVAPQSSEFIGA

**Q.** NS(=O)(=O)c1cccc(Nc2nccc(-c3ccccc3)n2)c1 [13f, 3-[(4-phenylpyrimidin-2-yl)amino] benzene-1-sulfonamide] was tested. Which IC50 did it give?
**A.** 22.7 nM
